Consider 3 compounds from US12275795B2, “Binding molecules against BCMA and uses thereof” (NOVARTIS AG, priority 2018, dated 2025).

The test system of one assay is KMS11-luc cells. Description: RTCC assay of bivalent AB3 in combination with GSI (8x8 matrix). It counts as cell-based, human. Particulars: for shift of bivalent AB3 response curves with increasing GSI concentration: combination with bivalent AB3. The text has this: Human T cells were isolated from peripheral blood of healthy human donors. First, peripheral blood mononuclear cells (PBMCs) were fractionated from donor blood using a Ficoll-Paque PLUS (GE Healthcare #17-1440-02) density gradient. T-cells were then isolated from PBMCs by negative selection according to manufacturer's recommended protocol (Miltenyi #130-096-535). The isolated T-cells were further expanded using Human T-Activator CD3/CD28 Dynabeads (Gibco #11132D) for nine days, then debeaded magnetically and stored as viable frozen aliquots in liquid nitrogen. The expanded T cells were used as effector T cells in RTCC assays where they were thawed from frozen aliquots, counted and used immediately at an Effector:Target (E:T) cell ratio of 3:1.
The target MM cell line KMS11 was transduced to constitutively express luciferase, which was used to measure cell viability/survival. KMS11 cells were pelleted and resuspended in fresh media immediately prior to plating to remove any basal level of shed BCMA that can have been present. 2,500 KMS11-luc target cells in 25 μL TCM were added to wells of 384-well plates. 50 nL of serially diluted bivalent AB3 and GSI solutions (LY411575, PR03084014, and BMS0708163) were acoustically dispensed to corresponding wells of the assay plates. 7,500 expanded T cells, as described above, were added to corresponding wells of assay plate in 20 μL TCM. The assay was incubated at 37° C./5% CO2 for 20 hr, followed by measurement of luciferase activity to indicate target cell viability (BrightGlo, Promega #E2650) following manufacturer's protocols. Target cells only (KMS11) without T cells or antibodies serve as control and represent 100% luciferase activity (100% viability). Data were plotted and analyzed using Spotfire, where EC50 values were calculated using sigmoidal, 4-parameter non-linear regression curve fit.
Data from bivalent AB3 and GSI combinations from Example 11 (FIG. 24) were plotted and analyzed using Spotfire, where EC50 values were calculated using sigmoidal, 4-parameter non-linear regression curve fit.

The subject of another assay is mBCMA on KMS11 cells. Description: Time course of membrane BCMA (mBCMA) by flow cytometry after GSI treatment. It counts as cell-based, human. Particulars: 2 nM LY411575 or 200 nM PF03084014, 42-hr time course. The method, then: (§1) KMS11 cells were cultured in a 6 well plate at 4×10^6 cells/well in 4 mL of RPMI1640 supplemented with 20% FBS (Gibco #11875-085, Seradigm #1500-500) per well. GSI stock solutions were prepared in DMSO at 10 mM, and added to the cells at final concentrations of 2 nM for LY411575 (Sigma #SML0506) or 200 nM for PF03084014 (Selleckchem #S8018) respectively. Cells were incubated at 37° C./5% CO2, and samples were collected at the following time points: 0, 1, 2, 4, 6, 8, 12, 18, 24, 30 and 42 hr. Collected samples were evaluated for BCMA expression by ELISA and flow cytometry as outline below.
(§2) A pre-treatment study was conducted as above except that KMS11 cells were treated overnight (22 hr) with only LY411575. Cells were washed twice with 3 volumes of growth medium, and re-plated with fresh growth medium without the GSI to the original 4 mL volume. […]
For each collected sample, cells were pelleted by centrifugation. […] Samples from all timepoints were analyzed together by flow cytometry on a BD LSR Fortessa instrument. […]
Where receptor density of BCMA was provided, the anti-BCMA antibody binding capacity (ABC) on KMS11 cells was determined using Quantum Simply Cellular beads (Bangs Laboratories #815) following vendor supplied protocol. The ABC is an estimate of the quantity of receptors per cell.
Background: Flow cytometry measures light scatter and fluorescence of single cells or particles in a stream.

For the next assay, the system named is sBCMA from KMS11 cells. Description: Time course of shed BCMA (sBCMA) by ELISA after GSI treatment. It counts as cell-based, human. Particulars: 2 nM LY411575 or 200 nM PF03084014, 42-hr time course. On the procedure: as §1, §2
sBCMA levels in supernatants collected and frozen at the various timepoints were determined by ELISA following vendor supplied protocol (R&D Systems #DY193). […] Quantified values as determined by the kit were divided by 5.5 to correct for a molecular mass difference between BCMA-Fc fusion protein used in the kit as a standard curve (32,554.6 Da) and the mass of endogenously shed BCMA extra-cellular domain (5,899.3 Da). […]

The subject of another assay is mBCMA in KMS11 xenograft. Description: In vivo GSI treatment, membrane BCMA on tumor cells by flow cytometry. Details: species or system NSG mice. Particulars: 150 mg/kg BID for 5 days. On the procedure:
On Day 0, KMS11-Luc cells were harvested and suspended in Hanks Balanced Salt Solution (HBSS) and 50% matrigel solution at a concentration of 25×10^6 cells/mL. Female NOD.Cg-Prkdc^scidII2rg^tm1Wji/SzJ mice (NSG mice) at ˜6 weeks old (Jackson Laboratories, ME, USA), were implanted sub-cutaneously (SQ) with 200 μL of the cell suspension to deliver 5×10^6 KMS11-Luc cells SQ in the right flank. Seven days following tumor inoculation, each mouse received an adoptive transfer (AdT) of 10×10^6 of peripheral blood mononuclear cells (PBMCs) in 100 μL via IV injection in the lateral tail vein. The PBMCs were previously isolated from a human leukopak, frozen and stored in Cryostor10 media in vapor phase liquid Nitrogen tank until use. Immediately prior to AdT, PBMCs were thawed and suspended at a concentration of 100×10^6 cells/ml in Hanks Balanced Salt Solution (HBSS). […] To obtain single cell suspensions from excised tumors, the tissues were minced with scissors followed by mechanical homogenization in dissociation buffer containing RPMI (Gibco, Life Technologies) with Liberase™ research grade collagenase (Roche) and DNase I recombinase (Roche) using the GentleMAX (Miltenyi). Following a 5 minute incubation at 37° C. in a water or bead bath, the homogenates were quenched with 10% FBS and filtered on a 70-μM sieve (352350, Falcon). The concentration of single cell suspensions were measured on the Vi-Cell (Beckman Coulter), and cells were pelleted by centrifugation for 5 minutes at 1200 rpm. The supernatants were discarded and cell pellets were resuspended in 400 μL of RPMI (Gibco, Life Technologies). Tumor cells were plated in a volume of 100 μL/well at a cell density of 500,000 to 2 million/well. For cell surface staining, live/dead stain was added to plated samples in DPBS and incubated for 30 minutes. […] All samples were analyzed together by flow cytometry at the completion of the study. […]

Assay [1] deals with sBCMA in KMS11 xenograft model serum. Description: In vivo GSI treatment, shed BCMA in serum by ELISA. Details: species or system NSG mice. The note with it: 150 mg/kg BID for 5 days. On the procedure: sBCMA levels in supernatants collected and frozen at the various timepoints were determined by ELISA following vendor supplied protocol (R&D Systems #DY193). Briefly, recombinant human BCMA-Fc protein was included in the kit, and used to generate a standard curve. Collected samples were assayed and sBCMA concentrations extrapolated from the standard curve. […] The results were plotted in Tibco Spotfire or Graphpad Prism against the concentration of GSI. On Day 0, KMS11-Luc cells were harvested and suspended in Hanks Balanced Salt Solution (HBSS) and 50% matrigel solution at a concentration of 25×10^6 cells/mL. Female NOD.Cg-Prkdc^scidII2rg^tm1Wji/SzJ mice (NSG mice) at ˜6 weeks old (Jackson Laboratories, ME, USA), were implanted sub-cutaneously (SQ) with 200 μL of the cell suspension to deliver 5×10^6 KMS11-Luc cells SQ in the right flank. Seven days following tumor inoculation, each mouse received an adoptive transfer (AdT) of 10×10^6 of peripheral blood mononuclear cells (PBMCs) in 100 μL via IV injection in the lateral tail vein. The PBMCs were previously isolated from a human leukopak, frozen and stored in Cryostor10 media in vapor phase liquid Nitrogen tank until use. Immediately prior to AdT, PBMCs were thawed and suspended at a concentration of 100×10^6 cells/ml in Hanks Balanced Salt Solution (HBSS).
(In general: ELISA stands for enzyme-linked immunosorbent assay.)

Where [2] appears, read: KMS11-luc, expanded T cells E:T 3:1, 20 hr.

The structures appear in SMILES notation.

In the case of `NC(=O)[C@@H](CCC(F)(F)F)N(Cc1ccc(-c2ncon2)cc1F)S(=O)(=O)c1ccc(Cl)cc1` [BMS-708163, (R)-2-((4-chloro-N-(2-fluoro-4-(1,2,4-oxadiazol-3-yl)benzyl)phenyl)sulfonamido)-5,5,5-trifluoropentanamide], in the assay with KMS11-luc cells (setting [2]), the “GSI concentration with modest enhancement of bivalent AB3 potency” value is given as 8 nM and the “GSI concentration with significant enhancement of bivalent AB3 potency” value is recorded as at least 31 nM. For the same compound, the “shift of bivalent AB3 response curves with increasing GSI concentration” value (from here on “shift … with increasing GSI concentration”) in the assay with KMS11-luc cells is recorded as “response curves shifted to the left”.
On to `C[C@H](NC(=O)[C@@H](O)c1cc(F)cc(F)c1)C(=O)N[C@@H]1C(=O)N(C)c2ccccc2-c2ccccc21` [LY411575, (S)-2-((S)-2-(3,5-difluorophenyl)-2-hydroxyacetamido)-N—((S)-5-methyl-6-oxo-6,7-dihydro-5H-dibenzo[b,d]azepin-7-yl)propanamide], for which, in the assay with mBCMA on KMS11 cells, the “mBCMA levels over time” value is listed as “increased over time”. In addition, the “sBCMA concentration over time” value in the assay with sBCMA from KMS11 cells is reported as “no increase over time”. Besides, in the assay with KMS11-luc cells (setting [2]), the “GSI concentration with no effect on bivalent AB3 activity” value is at most 7.8 pM, the “GSI concentration with significant enhancement of bivalent AB3 potency” value is at least 0.125 nM and the “GSI concentration with small effect on bivalent AB3 activity” value worked out at 31.2 pM. Also, the “shift … with increasing GSI concentration” value with KMS11-luc cells is on record as “response curves shifted to the left”.
For `CCC[C@H](N[C@H]1CCc2cc(F)cc(F)c2C1)C(=O)Nc1cn(C(C)(C)CNCC(C)(C)C)cn1` [PF03084014, (S)-2-(((S)-6,8-difluoro-1,2,3,4-tetrahydronaphthalen-2-yl)amino)-N-(1-(2-methyl-1-(neopentylamino)propan-2-yl)-1H-imidazol-4-yl)pentanamide], in the assay with mBCMA in KMS11 xenograft, the “increase in mBCMA compared to the vehicle control” value was 10 fold, the “mBCMA levels by 24 hours post last dose” value was “dropped back to levels similar to those observed for the vehicle control” and the “time point post last dose through which mBCMA increase was sustained” value amounted to 7 h. Moreover, the “mBCMA levels over time” value in the assay on mBCMA on KMS11 cells is on record as “increased over time”. Further, the “sBCMA concentration over time” value with sBCMA from KMS11 cells is listed as “no increase over time”. In addition, in the assay with KMS11-luc cells (setting [2]), the “GSI concentration with modest enhancement of bivalent AB3 potency” value is recorded as 3 nM and the “GSI concentration with significant enhancement of bivalent AB3 potency” value is listed as at least 12 nM. Moreover, the “shift … with increasing GSI concentration” value with KMS11-luc cells is on record as “response curves shifted to the left”. Besides, in assay [1], the “sBCMA levels between 24 and 48 hours post last dose” value is on record as “returning to levels comparable to those observed for the vehicle treated animals”; the “time post last dose for which sBCMA levels were ablated” value is recorded as “up to 24 hours”.
